{
  "source": "patent US4769386A",
  "about": "“Imidazolylthioalkenoic acids and -alkenols and leukotriene antagonistic composition containing them” (Smithkline Beckman Corporation, priority 1986, dated 1988)",
  "note": "Structures can show the parent of a compound that is named as a salt.",
  "data": [
    {"biological_target": "T1, leukotriene induced contraction of guinea pig tracheal tissues (LTD4) (Cavia porcellus, UniProt Q2NNR5)", "T1 construct": "from tissue; host or cells: guinea pig (adult male albino Hartley strain) tracheal spiral strips", "T1 sequence (Q2NNR5 1-340)": "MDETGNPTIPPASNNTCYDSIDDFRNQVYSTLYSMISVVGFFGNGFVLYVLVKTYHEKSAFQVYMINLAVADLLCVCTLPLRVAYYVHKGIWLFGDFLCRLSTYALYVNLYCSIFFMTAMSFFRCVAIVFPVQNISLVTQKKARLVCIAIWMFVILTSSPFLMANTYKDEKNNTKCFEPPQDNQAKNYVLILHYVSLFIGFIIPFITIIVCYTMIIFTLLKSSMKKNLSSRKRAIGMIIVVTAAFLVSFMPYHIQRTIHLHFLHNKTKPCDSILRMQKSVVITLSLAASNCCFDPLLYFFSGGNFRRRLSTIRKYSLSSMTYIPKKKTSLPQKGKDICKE", "test": "leukotriene (LTD4) induced contraction of guinea pig tracheal spiral strips in vitro, leukotriene antagonist activity", "type": "cell-based, guinea pig (adult male albino Hartley strain)", "details": "antagonism of LTD4 contraction, guinea pig trachea; EC30 based (30% of carbachol contraction); meclofenamic acid 1 μM; test compound 30 min pretreatment; KB = concentration of test compound/(X-1); 30 min", "description": "(§1) The leukotriene antagonist activity of the compounds of this invention is measured by the ability of the compounds to inhibit the leukotriene induced contraction of guinea pig tracheal tissues in vitro. The following methodology was employed:\n(§2) In vitro: Guinea pig (adult male albino Hartley strain) tracheal spiral strips of approximate dimensions 2 to 3 mm cross-sectional width and 3.5 cm length were bathed in modified Krebs buffer in jacketed 10 ml tissue bath and continuously aerated with 95% O2 /5% CO2. The tissues were connected via silk suture to force displacement transducers for recording isometric tension. The tissues were equilibrated for 1 hr., pretreated for 15 minutes with meclofenamic acid (1 μM) to remove intrinsic prostaglandin responses, and then pretreated for an additional 30 minutes with either the test compound or vehicle control. A cumulative concentration-response curve for LTD4 on triplicate tissues was generated by successive increases in the bath concentration of the LTD4. In order to minimize intertissue variability, the contractions elicited by LTD4 were standardized as a percentage of the maximum response obtained to a reference agonist, carbachol […].\n(§3) Calculations: The averages of the triplicate LTD4 concentration-response curves both in the presence and absence of the test compound were plotted on log graph paper. The concentration of LTD4 needed to elicit 30% of the contraction elicited by carbachol was measured and defined as the EC30. The -log KB value for the test compound was determined by the following equations:\n(§4) 2. KB = concentration of test compound/(X-1)", "values": [
      {"smiles": "CCCCCCCCCCCC/C=C\\C(Sc1nc(C)c(C(=O)O)n1C)C(O)CCC(=O)O", "note": "(single isomer, unassigned) [Formula (III), R1 ^(a) CH3, R2 --CO2 H, R3 CH3 (first isomer line), 4-Hydroxy-5-(1,4-dimethyl-5-carboxy-2-imidazolylthio)-6(Z)-nonadecenoic acid]", "In Vitro -Log KB": 6.9},
      {"smiles": "CCCCCCCCCCCC/C=C\\C(Sc1nc(C)c(C(=O)O)n1C)C(O)CCC(=O)O", "note": "(single isomer, unassigned) [Formula (III), R1 ^(a) CH3, R2 --CO2 H, R3 CH3 (second isomer line), 4-Hydroxy-5-(1,4-dimethyl-5-carboxy-2-imidazolylthio)-6(Z)-nonadecenoic acid]", "In Vitro -Log KB": 6.8}
    ]},
    {"biological_target": "T1, leukotriene induced contraction of guinea pig tracheal tissues (LTD4)", "test": "leukotriene (LTD4) induced contraction of guinea pig tracheal spiral strips in vitro, leukotriene antagonist activity", "type": "cell-based, guinea pig (adult male albino Hartley strain)", "details": "antagonism of LTD4 contraction, guinea pig trachea; EC30 based (30% of carbachol contraction); meclofenamic acid 1 μM; test compound 30 min pretreatment; KB = concentration of test compound/(X-1); read-out: In Vitro -Log KB (converted)", "description": "as §1, §2, §3, §4", "units": {"Kb": "nM"}, "values": [
      {"smiles": "CCCCCCCCCCCC/C=C\\[C@H](Sc1nc(C(=O)O)c[nH]1)[C@H](O)CCC(=O)O", "note": "(relative stereo) [Formula (III), R1 H, R2 --CO2 H, R3 H, 4-Hydroxy-5-[4(5)-carboxy-2-imidazolylthio]-6(Z)-nonadecenoate acid]", "Kb": 2000},
      {"smiles": "CCCCCCCCCCCC/C=C\\[C@H](Sc1ncc(C(N)=O)n1C)[C@H](O)CCC(=O)O", "note": "(relative stereo) [Formula (III), R1 CH3, R2 --CONH2, R3 H, 4-Hydroxy-5-(1-methyl-5-carboxamido-2-imidazolylthio)-6(Z)-nonadecenoic acid]", "Kb": 3980},
      {"smiles": "CCCCCCCCCCCC/C=C\\[C@H](Sc1nc(CC(=O)O)cn1C)[C@H](O)CCC(=O)O", "note": "(relative stereo) [4-Hydroxy-5-(1-methyl-4-carboxymethyl-2-imidazolylthio)-6(Z)-nonadecenoic acid]", "Kb": 794},
      {"smiles": "CCCCCCCCCCCC/C=C\\C(CCCC(=O)O)Sc1ncc(C(=O)O)n1C", "note": "(stereo not drawn) [5-(1-methyl-5-carboxy-2-imidazolylthio)-6(Z)-nonadecenoic acid]", "Kb": 316},
      {"smiles": "CCCCCCCCCCCC/C=C\\[C@H](Sc1nc(C)c(CCC(=O)O)n1C)[C@H](O)CCC(=O)O", "note": "(relative stereo) [4-Hydroxy-5-[5-(2-carboxyethyl)-1,4-dimethyl-2-imidazolylthio]-6(Z)-nonadecenoic Acid]", "Kb": 1260},
      {"smiles": "CCCCCCCCCCCC/C=C\\[C@H](Sc1nc(C)c(C(=O)O)n1C)[C@H](O)CCC(=O)O", "note": "(relative stereo) [4-Hydroxy-5-(1,4-dimethyl-5-carboxy-2-imidazolylthio)-6(Z)-nonadecenoic acid]", "Kb": 126},
      {"smiles": "CCCCCCCCCCCC/C=C\\[C@H](Sc1nc(CC)c(C(=O)O)n1C)[C@H](O)CCC(=O)O", "note": "(relative stereo) [4-Hydroxy-5-(5-carboxy-4-ethyl-1-methyl-2-imidazolylthio)-6-(Z)-nonadecenoic Acid]", "Kb": 200},
      {"smiles": "CCCCCCCCCCCC/C=C\\[C@H](Sc1nc(C)c(CC(N)=O)n1C)[C@H](O)CCC(=O)O", "note": "(relative stereo) [4-Hydroxy-5-(5-Aminocarbonylmethyl-1,4-dimethyl-2-imidazolylthio)-6(Z)-nonadecenoic Acid]", "Kb": 631},
      {"smiles": "CCCCCCCCCCCC/C=C\\C(Sc1cn(C)cn1)C(O)CCC(=O)O", "note": "(stereo not drawn) [Formula (V), R4 ^(b) CH3, R5 H, R6 H, 4-Hydroxy-5-(1-methyl-4-imidazolylthio)-6(Z)-nonadecenoic acid, sodium salt]", "Kb": 2000},
      {"smiles": "CCCCCCCCCCCC/C=C\\[C@H](Sc1nccn1C)[C@H](O)CCC(=O)O", "note": "(relative stereo) [Formula (III), R1 CH3, R2 H, R3 H, 4-Hydroxy-5-(1-methyl-2-imidazolylthio)-6(Z)-nonadecenoic acid]", "Kb": 1260},
      {"smiles": "CCCCCCCCCCCC/C=C\\[C@H](Sc1ncc(C(=O)O)n1C)[C@H](O)CCC(=O)O", "note": "(relative stereo) [Formula (III), R1 CH3, R2 --CO2 H, R3 H, 4-Hydroxy-5-(1-methyl-5-carboxy-2-imidazolylthio)-6(Z)-nonadecenoic acid]", "Kb": 158},
      {"smiles": "CCCCCCCCCCCCC#CC(Sc1nc(C)c(C(=O)O)n1C)C(O)CCC(=O)O", "note": "(stereo not drawn) [4-Hydroxy-5-(1,4-dimethyl-5-carboxy-2-imidazolylthio)-6-nonadecynoic acid]", "Kb": 1580},
      {"smiles": "CCCCCCCCCCCC/C=C\\[C@H](Sc1nc(C(C)C)c(C(=O)O)n1C)[C@H](O)CCC(=O)O", "note": "(relative stereo) [4-Hydroxy-5-(5-carboxy-4-isopropyl-1-methyl-2-imidazolylthio)-6(Z)-nonadecenoic Acid]", "Kb": 1260},
      {"smiles": "C=CCn1ccnc1S[C@@H](/C=C\\CCCCCCCCCCCC)[C@H](O)CCC(=O)O", "note": "(relative stereo) [Formula (III), R1 CH2 =CHCH2, R2 H, R3 H, 4-Hydroxy-5-(1-allyl-2-imidazolylthio)-6(Z)-nonadecenoic acid]", "Kb": 5010},
      {"smiles": "CCCCCCCCCCCC/C=C\\[C@H](Sc1nccn1C)[C@H](O)CCCC(=O)O", "note": "(relative stereo) [Formula (IV), R1 CH3, R2 H, R3 H, 5-Hydroxy-6-(1-methyl-2-imidazolylthio)-7(Z)-eicosenoic acid]", "Kb": 1000},
      {"smiles": "CCCCCCCCCCCC/C=C\\[C@H](Sc1nc(CCC)c(C(=O)O)n1C)[C@H](O)CCC(=O)O", "note": "(relative stereo) [4-Hydroxy-5-(5-carboxy-1-methyl-4-propyl-2-imidazolylthio)-6(Z)-nonadecenoic Acid]", "Kb": 316},
      {"smiles": "CCCCCCCCCCCC/C=C\\C(Sc1ncn(C)c1C(=O)O)C(O)CCC(=O)O", "note": "(stereo not drawn) [Formula (V), R4 CH3, R5 H, R6 --CO2 H, 4-Hydroxy-5-(1-methyl-5-carboxy-4-imidazolylthio)-6(Z)-nonadecenoic acid]", "Kb": 200},
      {"smiles": "CCCCCCCCCCCC/C=C\\[C@H](Sc1nc(C)c(C)n1C)[C@H](O)CCC(=O)O", "note": "(relative stereo) [Formula (III), R1 CH3, R2 CH3, R3 CH3, 4-Hydroxy-5-(1,4,5-trimethyl-2-imidazolylthio)-6(Z)-nonadecenoic acid]", "Kb": 2510},
      {"smiles": "CCCCCCCCCCCC/C=C\\[C@H](Sc1nccn1CC)[C@H](O)CCC(=O)O", "note": "(relative stereo) [Formula (III), R1 CH3 CH2, R2 H, R3 H, 4-Hydroxy-5-(1-ethyl-2-imidazolylthio)-6(Z)-nonadecenoic acid, sodium salt]", "Kb": 5010},
      {"smiles": "CCCCCCCCCCCC/C=C\\[C@H](Sc1nc(C)c(CC(=O)O)n1C)[C@H](O)CCC(=O)O", "note": "(relative stereo) [4-Hydroxy-5-(5-carboxymethyl-1,4-dimethyl-2-imidazolylthio)-6(Z)-nonadecenoic Acid]", "Kb": 398}
    ]},
    {"biological_target": "T1, leukotriene induced contraction of guinea pig tracheal tissues (LTD4)", "test": "leukotriene (LTD4) induced contraction of guinea pig tracheal spiral strips in vitro, leukotriene antagonist activity", "type": "cell-based, guinea pig (adult male albino Hartley strain)", "details": "method as for the table (LTD4, guinea pig trachea); read-out: -log KB value (converted)", "description": "as §1, §2, §3, §4", "units": {"Kb": "nM"}, "values": [
      {"smiles": "Cc1nc(SC(/C=C\\CCCCCCCCc2ccccc2)C(O)CCC(=O)O)n(C)c1C(=O)O", "note": "(stereo not drawn) [Example 26, 4-Hydroxy-5-(5-carboxy-1,4-dimethyl-2-imidazolylthio)-15-phenyl-6(Z)-pentadecenoic Acid]", "Kb": 251},
      {"smiles": "CC(C)=CCCCCCCCCC/C=C\\C(Sc1nc(C)c(C(=O)O)n1C)C(O)CCC(=O)O", "note": "(stereo not drawn) [Example 25, 4-Hydroxy-5-(5-carboxy-1,4-dimethyl-2-imidazolylthio)-18-methyl-6(Z),17-nonadecadienoic Acid]", "Kb": 31.6}
    ]}
  ]
}
